Reference: US20140066394A1, “Substituted 6-(Benzylamino) Purine Riboside Derivatives, Use Thereof and Compositions Containing These Derivatives” (Biopatterns, S.R.O, priority 2009, published 2014)
pIC50: −log10 of the molar value.

How the values were obtained:
neutrophils [1] = experiment: Neutrophil spreading in Fibronectin; type: cell-based; details: FIG. 8
neutrophils [2] = experiment: Neutrophil superoxide generation, lucigenin based assay; type: cell-based; details: Homo sapiens, primed neutrophils, compound 10 minutes prior to fMLP (FIG. 2)
Protocol: (§1) Neutrophils were cultured at 2×10^6 cells/ml in RPMI1640 medium containing human serum antibiotics and 20 ng/ml TNFα for 10 minutes prior to addition of a range of concentrations of compound 10. Generation of superoxide was determined over a 10 minute period using a lucigenin based assay. The area under the curve was calculated to give superoxide generation over the whole assay period.
Anti-inflammatory effects against neutrophils were determined by assessing effects of several of the compounds on neutrophil inflammatory activity (superoxide generation, secretion of chemoattractant IL8 and degranulation to release myeloperoxidase). Neutrophils were isolated from human blood to a purity of greater than 95% and were cultured in RPMI1640 medium containing 2% human AB serum, 2 mM L-glutamine and antibiotics (100 U/ml penicillin, […] streptomycin). Neutrophils were primed for 30 minutes with 50 ng/ml GM-CSF prior to treatment with the bacterial stimulant fMLP (100 ng/ml) and measurement of superoxide generation in a lucigenin based assay (see Pongracz J and Lord J M 1998, Biochem. Biophys. Res. Commun. 247, 624-629) and release of IL8 and myeloperoxidase using an ELISA method. The novel compounds were added to the culture at a range of concentrations (0.1-100 μM) 10 minutes prior to addition of fMLP. […]

neutrophils [3] = experiment: Neutrophil adhesion, rolling and migration under flow over TNF primed HUVEC; type: cell-based, human
Protocol: Neutrophils were introduced into a flow based cell adhesion instrument at 5×10^6 cells/ml in medium containing 50 or 100 μM of compound 10. The capillary system is lined with TNF-primed HUVEC and cell adhesion, rolling and transmigration is monitored by time-lapse video microscopy. Data are expressed as cells adhered to HUVEC per mm^2, per 10^6 cells (left panel) or % of cells rolling or migrated (right panel). LGR 1406 (N-5-(2-aminocyclohexyl)-N-7-benzyl-3-isopropyl-1(2)H-pyrazolo[4,3-d]pyrimidine-5,7-diamine, Sroka et al. Mol Pharmacol. 2010; 77(2):255-61) was used as a negative control. Data are mean±SD of 3 separate experiments.
LGR 1406 as a negative control.
The ability of neutrophils to adhere to vascular endothelium and migrate from the blood into tissue, is the first step in the inflammatory process. Interference with this process would also result in suppression of inflammation. Neutrophils were flowed over TNF primed endothelial cells (HUVEC) lining a capillary based migration system, at flows rates and pressures mimicking the in vivo vasculature (see for detailed description of apparatus). Cells were recorded using time-lapse video microscopy and the numbers of rolling, adhered and transmigrated cells were enumerated over a 20 minute period. In test incubations the neutrophils and HUVEC were pre-treated with compound 10 at 50 and 100 μM and the compound was also present in the medium in which neutrophils were suspended.

neutrophils [4] = experiment: ANCA induced neutrophil apoptosis; type: cell-based; details: Homo sapiens, 10 hours, TNFα pre-treated, anti-PR3 and anti-MPO ANCA (FIG. 9), read-out: IC50 for overcoming the increase in apoptosis imposed by ANCA
Protocol: Neutrophils were cultured at 2×10^6 cells/ml for 10 h in RPMI1640 medium containing human serum and antibiotics and a range of concentrations of compound 10 in the absence or presence of ANCA. Apoptosis was determined by flow cytometry after DiOC6 staining.
ANCA are predominantly IgG autoantibodies directed against constituents of primary granules of neutrophils (PR3 and MPO). ANCA associated vasculitis is the most common primary systemic small-vessel vasculitis in adults. The common pathology of this disease is focal necrotizing lesions of blood vessels and may affect different vessels and organs. […] Neutrophils were cultured for 10 hours in RPMI1640 medium containing 2% human AB serum, 2 mM L-glutamine and antibiotics (100 U/ml penicillin, […] streptomycin) and their apoptosis determined by staining with Giemsa stain and observing an apoptotic morphology by light microscopy. […] The ability of compound 10 to inhibit ANCA-induced neutrophil inflammatory functions was also determined Neutrophils were cultured in RPMI1640 medium containing 2% human AB serum, 2 mM L-glutamine and antibiotics (100 U/ml penicillin, […] streptomycin). […] ANCA stimulated degranulation of neutrophils was assessed by release of myeloperoxidase in to the medium over a 30 minute period, with MPO measured by ELISA. […] HUVEC viability was determined by trypan blue staining and light microscopy.

neutrophils [5] = experiment: ANCA-induced neutrophil superoxide generation, lucigenin based assay; type: cell-based, human; details: single concentration 10 μM, 10 minute period (FIG. 11)
Protocol: as §1, with “FIG. 11 Inhibition of ANCA induced neutrophil ROS production by compound 10. Neutrophils were” for “Neutrophils were”, “addition of ANCA and a range” for “addition of a range”
ANCA are predominantly IgG autoantibodies directed against constituents of primary granules of neutrophils (PR3 and MPO). ANCA associated vasculitis is the most common primary systemic small-vessel vasculitis in adults. […] Neutrophils were cultured for 10 hours in RPMI1640 medium containing 2% human AB serum, 2 mM L-glutamine and antibiotics (100 U/ml penicillin, […] streptomycin) and their apoptosis determined by staining with Giemsa stain and observing an apoptotic morphology by light microscopy. […] The ability of compound 10 to inhibit ANCA-induced neutrophil inflammatory functions was also determined Neutrophils were cultured in RPMI1640 medium containing 2% human AB serum, 2 mM L-glutamine and antibiotics (100 U/ml penicillin, […] streptomycin). […] ANCA stimulated degranulation of neutrophils was assessed by release of myeloperoxidase in to the medium over a 30 minute period, with MPO measured by ELISA. […]

[6] = compound at 50 and 100 μM, 20 minute period

pIC50 (neutrophils [2]): 5.30
pIC50 (neutrophils [4]): 5.40
SMILES: COc1cccc(CNc2nc(Cl)nc3c2ncn3C2OC(CO)C(O)C2O)c1O (stereo not shown) [Compound 10, 2-Chloro-6-(2-hydroxy-3-methoxybenzylamino)purine riboside]
neutrophil spreading in Fibronectin (neutrophils [1]): reduces neutrophil spreading
neutrophil rolling velocity (neutrophils [3]; FIG. 7, LGR 1406 as negative control): positive effects
number of cells that adhered and transmigrated through the endothelial layer (neutrophils [3]; [6]): reduced the number of cells that adhered and transmigrated
number of cells that rolled over the endothelium (neutrophils [3]; [6]): increased the ones that rolled over the endothelium
ANCA-induced superoxide generation (neutrophils [5]): completely inhibited ANCA-induced superoxide generation
